Data taken from PubChem BioAssay AID493223 (Johns Hopkins Ion Channel Center, 2011).
The source made the active and inactive calls.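 Rule for the calls: active = compound that raises the TRPC4 channel signal at some tested dose, with a fitted concentration curve; inactive = the rest.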

The compounds below were run against Transient receptor potential cation channel C4 (TRPC4), mouse (assay: TRPC4 positive allosteric modulators, dose response, cell-based, HEK293 TRPC4, Fluo-4 calcium flux (AID 493223)). Details: HEK293 TRPC4 cells, Fluo-4 calcium fluorescence ratio.

| Structure (SMILES) | EC50 |
| --- | --- |
| CN(C)CCN(C)Cc1cc(Br)ccc1O | 1.78 µM |
| CCN1CCN(Cc2cc(Br)ccc2O)CC1 | 0.86 µM |

Same assay, conditions: HEK293 TRPC4 cells, Fluo-4 calcium fluorescence ratio; at 20 µM (top of the series)

| Structure (SMILES) | fluorescence ratio, higher = potentiation |
| --- | --- |
| COCCN(C)Cc1cc(Br)ccc1O | inactive |
| CC1CC(C)CN(Cc2cc(F)ccc2O)C1 (stereo not drawn) | inactive |
| CN1CCN(Cc2cc(Cl)ccc2O)CC1 | inactive |
| CC(C)(C)OC(=O)N1CCN(Cc2cc(Cl)ccc2O)CC1 | inactive |
| CCN(CC)Cc1cc(Cl)ccc1O | inactive |
| CCN(CC)Cc1cc(Br)ccc1O | inactive |
| Oc1ccc(Br)cc1CN1CCCCC1 | inactive |
| Oc1ccc(F)cc1CN1CCCCC1 | inactive |
| COc1ccc(N2CCN(Cc3cc(F)ccc3O)CC2)cc1 | inactive |
| Oc1ccc(Cl)cc1CN1CCN(c2ccc(F)cc2F)CC1 | inactive |
| Oc1ccc(Br)cc1CN1CCOc2ccccc21 | inactive |
| Oc1ccc(Cl)cc1CN1CCN(c2ncccn2)CC1 | inactive |
| Oc1ccc(F)cc1CN1CCC(N2CCOCC2)CC1 | inactive |
| Oc1ccc(Br)cc1CN1CCN(c2ccc(F)cc2F)CC1 | inactive |
| COCCN(C)Cc1cc(Cl)ccc1O | inactive |
| Oc1ccc(Cl)cc1CN1CCCC1 | inactive |
| COc1ccc(N2CCN(Cc3cc(Cl)ccc3O)CC2)cc1 | inactive |
| Oc1ccc(Br)cc1CN1CCC(N2CCOCC2)CC1 | inactive |
| COCCN(C)Cc1cc(F)ccc1O | inactive |
| CC1CCN(Cc2cc(Cl)ccc2O)CC1 | inactive |
| Oc1ccc(Br)cc1CN1CCCC1 | inactive |
| Oc1ccc(Br)cc1CN1CCN(c2ccncc2)CC1 | inactive |
| Oc1ccc(F)cc1CN1CCN(c2ccncc2)CC1 | inactive |
| Oc1ccc(F)cc1CN1CCN(CC2CCCO2)CC1 (stereo not drawn) | inactive |
| CC(C)(C)OC(=O)N1CCN(Cc2cc(Br)ccc2O)CC1 | inactive |
| Oc1ccc(F)cc1CN1CCCC1 | inactive |

| Structure (SMILES) | fluorescence ratio, higher = potentiation |
| --- | --- |
| Oc1ccc(Br)cc1CN1CCN(CC2CCCO2)CC1 (stereo not drawn) | inactive |
| CC(C)(C)OC(=O)N1CCN(Cc2cc(F)ccc2O)CC1 | inactive |
| Oc1ccc(Cl)cc1CN1CCN(CC2CCCO2)CC1 (stereo not drawn) | inactive |
| Oc1ccc(Cl)cc1CN1CCC(N2CCOCC2)CC1 | inactive |
| Oc1ccc(Br)cc1CN1CCN(c2ccccn2)CC1 | inactive |
| Oc1ccc(Cl)cc1CN1CCCCC1 | inactive |
| Oc1ccc(Cl)cc1CN1CCOc2ccccc21 | inactive |
| Oc1ccc(F)cc1CN1CCOCC1 | inactive |
| Oc1ccc(Br)cc1CN1CCN(c2ncccn2)CC1 | inactive |
| Oc1ccc(F)cc1CN1CCN(c2ncccn2)CC1 | inactive |
| Oc1ccc(Br)cc1CN1CCOCC1 | inactive |
| CN1CCN(Cc2cc(Br)ccc2O)CC1 | inactive |
| CCN(CC)Cc1cc(F)ccc1O | inactive |
| Oc1ccc(F)cc1CN1CCN(c2ccccn2)CC1 | inactive |
| CN1CCN(Cc2cc(F)ccc2O)CC1 | inactive |
| CC1CCN(Cc2cc(Br)ccc2O)CC1 | inactive |
| CC1CC(C)CN(Cc2cc(Cl)ccc2O)C1 (stereo not drawn) | inactive |
| CC1CCN(Cc2cc(F)ccc2O)CC1 | inactive |
| Oc1ccc(Cl)cc1CN1CCN(c2ccncc2)CC1 | inactive |
| Oc1ccc(F)cc1CN1CCN(c2ccc(F)cc2F)CC1 | inactive |
| Oc1ccc(F)cc1CN1CCOc2ccccc21 | inactive |
| CC1CC(C)CN(Cc2cc(Br)ccc2O)C1 (stereo not drawn) | inactive |
| COc1ccc(N2CCN(Cc3cc(Br)ccc3O)CC2)cc1 | inactive |
| CN(C)CCN(C)Cc1cc(F)ccc1O | inactive |
| Oc1ccc(Cl)cc1CN1CCN(c2ccccn2)CC1 | inactive |
